Test system: morphine addiction in mice
Assay: Morphine conditioned place preference scoring of mice
Assay type: in vivo, C57BL/6J mice
Conditions: 6 h before morphine 20 mg/kg/day i.p., 7 days, vs morphine group

| SMILES | preference score on morphine-paired side (Vadadustat 10 mg/kg/day i.p., FIG. 4) | preference score on morphine-paired side (Deferiprone 13 mg/mL, 1 μL into dorsal hippocampus, FIG. 5) |
| --- | --- | --- |
| O=C(O)CNC(=O)c1ncc(-c2cccc(Cl)c2)cc1O [Vadadustat] | significantly reduced | – |
| Cc1c(O)c(=O)ccn1C [Deferiprone, 3-hydroxy-1,2-dimethyl-4-(1H)-pyridone] | – | significantly reduced |

Source: patent publication US20240374578A1, “USE OF MEDICINE FOR REDUCING IRON CONTENT IN BRAIN IN PREPARATION OF DRUG FOR TREATING AND/OR PREVENTING NEUROPSYCHIATRIC DISEASES” (SOOCHOW UNIVERSITY, priority 2022, published 2024)
